Source: patent publication US20240218022A1, “ANTI-VISTA MACROCYCLIC PEPTIDES AND COMPOSITIONS” (BRISTOL-MYERS SQUIBB COMPANY, priority 2022, published 2024)
Starred links: 1 amine or outer side, 2 acyl side, 3 side chain; linkers in the order of their positions; H or OH if unused. Positions of bridges follow the written chain, without caps; N, C: chain ends. Non-standard residues stand in square brackets, D forms with d. Residues, ends and D or L forms follow the SMILES beside them. Phe(3-Me) = Cc1cccc(C[C@H](N)C(=O)O)c1; γGlu = O=C(O)[C@H](CCC(=O)[*:2])N[*:1]; 2Nal = N[C@@H](Cc1ccc2ccccc2c1)C(=O)O; NMeL = CN[C@@H](CC(C)C)C(=O)O; Ahp(2) = CCCCC[C@H](N)C(=O)O; NMeNle = CCCC[C@H](NC)C(=O)O; Tle = CC(C)(C)[C@H](N)C(=O)O; NHexGly = CCCCCCNCC(=O)O; Nle = CCCC[C@H](N)C(=O)O; Aun = NCCCCCCCCCCC(=O)O; AEEA = NCCOCCOCC(=O)O

Biological target: T1, mouse VISTA (mVISTA) (Mus musculus, UniProt Q9D659)
T1 construct: expressed in transfected cells; host or cells: Human embryonic kidney 293T cells
T1 sequence (Q9D659 33-308): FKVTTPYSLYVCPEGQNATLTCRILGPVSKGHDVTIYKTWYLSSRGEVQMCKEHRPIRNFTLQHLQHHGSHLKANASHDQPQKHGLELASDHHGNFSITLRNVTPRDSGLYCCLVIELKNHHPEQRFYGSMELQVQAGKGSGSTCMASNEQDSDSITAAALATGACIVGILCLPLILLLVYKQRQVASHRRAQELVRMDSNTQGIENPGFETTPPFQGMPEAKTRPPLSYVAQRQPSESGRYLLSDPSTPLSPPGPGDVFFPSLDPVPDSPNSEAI
Assay: Cell-Based Binding High-Content Assay For mVISTA (HC CBA mVISTA)
Details: read-out: HC CBA mVISTA IC50
Summary of the method: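 This high-content binding assay uses HEK293T cells expressing murine VISTA, measuring displacement of 2 nM biotinylated peptide by fluorescent streptavidin imaging. IC50 values come from four-parameter logistic fitting.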

Row | SMILES | IC50 [nM]
1 | CCCCCCN1CC(=O)N[C@@H](Cc2ccc(O)cc2)C(=O)N[C@@H](C(C)C)C(=O)NCC(=O)N[C@@H](CCCNC(=N)N)C(=O)N[C@@H](CC(C)C)C(=O)N[C@@H](CCCCC)C(=O)N2CCC[C@H]2C(=O)N[C@@H](C(C)C)C(=O)N[C@@H](CC(=O)O)C(=O)N[C@H](C(=O)NCCOCCOCC(=O)N[C@@H](CCC(=O)NCCOCCOCC(=O)NCCCCCCCCCCC(=O)O)C(=O)O)CSCC(=O)N[C@@H](Cc2ccc3ccccc3c2)C(=O)N[C@@H](Cc2ccc(O)cc2)C(=O)N[C@@H](CC(=O)O)C1=O [compound 2219] ({CH2CO}-[2Nal]YD[NHexGly]YVGRL[Ahp(2)]PVDC[AEEA][γGlu][AEEA][Aun]-OH; thioether N-14) | 24
2 | CCCCCCN1CC(=O)N[C@@H](Cc2ccc(O)cc2)C(=O)N[C@@H](CC(C)C)C(=O)N[C@@H](CC(N)=O)C(=O)N[C@@H](CCCNC(=N)N)C(=O)N[C@@H](CC(C)C)C(=O)N[C@@H](CCCCC)C(=O)N2CCC[C@H]2C(=O)N[C@@H](C(C)C)C(=O)N[C@@H](C(C)C)C(=O)N[C@H](C(=O)NCCOCCOCC(=O)N[C@@H](CCC(=O)NCCOCCOCC(=O)NCCCCCCCCCCC(=O)O)C(=O)O)CSCC(=O)N[C@@H](Cc2ccccc2)C(=O)N[C@@H](Cc2cccc(C)c2)C(=O)N[C@@H](CC(=O)O)C1=O [compound 2221] ({CH2CO}-F[Phe(3-Me)]D[NHexGly]YLNRL[Ahp(2)]PVVC[AEEA][γGlu][AEEA][Aun]-OH; thioether N-14) | 33.5
3 | CCCCCCN1CC(=O)N[C@@H](Cc2ccc(O)cc2)C(=O)N[C@@H](CCCC)C(=O)N[C@@H](CC(N)=O)C(=O)N[C@@H](CCCNC(=N)N)C(=O)N[C@@H](CC(C)C)C(=O)N[C@@H](CCCCC)C(=O)N2CCC[C@H]2C(=O)N[C@@H](C(C)C)C(=O)N[C@@H](CC(=O)O)C(=O)N[C@H](C(=O)NCCOCCOCC(=O)N[C@@H](CCC(=O)NCCOCCOCC(=O)NCCCCCCCCCCC(=O)O)C(=O)O)CSCC(=O)N[C@@H](Cc2cccc(C)c2)C(=O)N[C@@H](Cc2c[nH]c3ccccc23)C(=O)N[C@@H](CC(=O)O)C1=O [compound 2222] ({CH2CO}-[Phe(3-Me)]WD[NHexGly]Y[Nle]NRL[Ahp(2)]PVDC[AEEA][γGlu][AEEA][Aun]-OH; thioether N-14) | 28.7
4 | CCCCCCN1CC(=O)N[C@@H](Cc2ccc(O)cc2)C(=O)N[C@@H](CCCC)C(=O)N[C@@H](CC(N)=O)C(=O)N[C@@H](CCCNC(=N)N)C(=O)N[C@@H](CC(C)C)C(=O)N[C@@H](CCCCC)C(=O)N2CCC[C@H]2C(=O)N[C@@H](C(C)C)C(=O)N[C@@H](CO)C(=O)N[C@H](C(=O)NCCOCCOCC(=O)N[C@@H](CCC(=O)NCCOCCOCC(=O)NCCCCCCCCCCC(=O)O)C(=O)O)CSCC(=O)N[C@@H](Cc2ccc3ccccc3c2)C(=O)N[C@@H](Cc2ccc(O)cc2)C(=O)N[C@@H](CC(=O)O)C1=O [compound 2223] ({CH2CO}-[2Nal]YD[NHexGly]Y[Nle]NRL[Ahp(2)]PVSC[AEEA][γGlu][AEEA][Aun]-OH; thioether N-14) | 12.4
5 | CCCCCCN1CC(=O)N[C@@H](Cc2ccc(O)cc2)C(=O)N[C@@H](CCCC)C(=O)N[C@@H](CC(N)=O)C(=O)N[C@@H](CCCNC(=N)N)C(=O)N(C)[C@@H](CCCC)C(=O)N[C@@H](CCCCC)C(=O)N2CCC[C@H]2C(=O)N[C@@H](C(C)(C)C)C(=O)N[C@@H](CO)C(=O)N[C@H](C(=O)NCCOCCOCC(=O)N[C@@H](CCC(=O)NCCOCCOCC(=O)NCCCCCCCCCCC(=O)O)C(=O)O)CSCC(=O)N[C@@H](Cc2ccccc2)C(=O)N[C@@H](Cc2ccc(O)cc2)C(=O)N[C@@H](CC(=O)O)C1=O [compound 2224] ({CH2CO}-FYD[NHexGly]Y[Nle]NR[NMeNle][Ahp(2)]P[Tle]SC[AEEA][γGlu][AEEA][Aun]-OH; thioether N-14) | 18.6
6 | CCCCCCN1CC(=O)N[C@@H](Cc2ccc(O)cc2)C(=O)N[C@@H](CCCC)C(=O)N[C@@H](CC(N)=O)C(=O)N[C@@H](CCCNC(=N)N)C(=O)N(C)[C@@H](CCCC)C(=O)N[C@@H](CCCCC)C(=O)N2CCC[C@H]2C(=O)N[C@@H](C(C)(C)C)C(=O)N[C@@H](CO)C(=O)N[C@H](C(=O)NCCOCCOCC(=O)N[C@@H](CCC(=O)NCCOCCOCC(=O)NCCCCCCCCCCC(=O)O)C(=O)O)CSCC(=O)N[C@@H](Cc2ccccc2)C(=O)N[C@@H](Cc2cccc(C)c2)C(=O)N[C@@H](CC(=O)O)C1=O [compound 2225] ({CH2CO}-F[Phe(3-Me)]D[NHexGly]Y[Nle]NR[NMeNle][Ahp(2)]P[Tle]SC[AEEA][γGlu][AEEA][Aun]-OH; thioether N-14) | 30.8
7 | CCCCCCN1CC(=O)N[C@@H](Cc2ccc(O)cc2)C(=O)N[C@@H](CCCC)C(=O)N[C@@H](CC(N)=O)C(=O)N[C@@H](CCCNC(=N)N)C(=O)N(C)[C@@H](CCCC)C(=O)N[C@@H](CCCCC)C(=O)N2CCC[C@H]2C(=O)N[C@@H](C(C)(C)C)C(=O)N[C@@H](CO)C(=O)N[C@H](C(=O)NCCOCCOCC(=O)N[C@@H](CCC(=O)NCCOCCOCC(=O)NCCCCCCCCCCC(=O)O)C(=O)O)CSCC(=O)N[C@@H](Cc2ccccc2)C(=O)N[C@@H](Cc2c[nH]c3ccccc23)C(=O)N[C@@H](CC(=O)O)C1=O [compound 2226] ({CH2CO}-FWD[NHexGly]Y[Nle]NR[NMeNle][Ahp(2)]P[Tle]SC[AEEA][γGlu][AEEA][Aun]-OH; thioether N-14) | 24.4
8 | CCCCCCN1CC(=O)N[C@@H](Cc2ccc(O)cc2)C(=O)N[C@@H](CCCC)C(=O)N[C@@H](CC(N)=O)C(=O)N[C@@H](CCCNC(=N)N)C(=O)N(C)[C@@H](CCCC)C(=O)N[C@@H](CCCCC)C(=O)N2CCC[C@H]2C(=O)N[C@@H](C(C)(C)C)C(=O)N[C@@H](CO)C(=O)N[C@H](C(=O)NCCOCCOCC(=O)N[C@@H](CCC(=O)NCCOCCOCC(=O)NCCCCCCCCCCC(=O)O)C(=O)O)CSCC(=O)N[C@@H](Cc2ccc3ccccc3c2)C(=O)N[C@@H](Cc2ccc(O)cc2)C(=O)N[C@@H](CC(=O)O)C1=O [compound 2227] ({CH2CO}-[2Nal]YD[NHexGly]Y[Nle]NR[NMeNle][Ahp(2)]P[Tle]SC[AEEA][γGlu][AEEA][Aun]-OH; thioether N-14) | 41.5
9 | CCCCCCN1CC(=O)N[C@@H](Cc2ccc(O)cc2)C(=O)N[C@@H](CCCC)C(=O)N[C@@H](CC(N)=O)C(=O)N[C@@H](CCCNC(=N)N)C(=O)N(C)[C@@H](CCCC)C(=O)N[C@@H](CCCCC)C(=O)N2CCC[C@H]2C(=O)N[C@@H](C(C)(C)C)C(=O)N[C@@H](CO)C(=O)N[C@H](C(=O)NCCOCCOCC(=O)N[C@@H](CCC(=O)NCCOCCOCC(=O)NCCCCCCCCCCC(=O)O)C(=O)O)CSCC(=O)N[C@@H](Cc2cccc(C)c2)C(=O)N[C@@H](Cc2c[nH]c3ccccc23)C(=O)N[C@@H](CC(=O)O)C1=O [compound 2228] ({CH2CO}-[Phe(3-Me)]WD[NHexGly]Y[Nle]NR[NMeNle][Ahp(2)]P[Tle]SC[AEEA][γGlu][AEEA][Aun]-OH; thioether N-14) | 38.8
10 | CCCCCCN1CC(=O)N[C@@H](Cc2ccc(O)cc2)C(=O)N[C@@H](CCCC)C(=O)N[C@@H](CC(N)=O)C(=O)N[C@@H](CCCNC(=N)N)C(=O)N(C)[C@@H](CC(C)C)C(=O)N[C@@H](CCCCC)C(=O)N2CCC[C@H]2C(=O)N[C@@H](C(C)(C)C)C(=O)N[C@@H](CO)C(=O)N[C@H](C(=O)NCCOCCOCC(=O)N[C@@H](CCC(=O)NCCOCCOCC(=O)NCCCCCCCCCCC(=O)O)C(=O)O)CSCC(=O)N[C@@H](Cc2ccccc2)C(=O)N[C@@H](Cc2c[nH]c3ccccc23)C(=O)N[C@@H](CC(=O)O)C1=O [compound 2229] ({CH2CO}-FWD[NHexGly]Y[Nle]NR[NMeL][Ahp(2)]P[Tle]SC[AEEA][γGlu][AEEA][Aun]-OH; thioether N-14) | 33.1
11 | CCCCCCN1CC(=O)N[C@@H](Cc2ccc(O)cc2)C(=O)N[C@@H](CC(C)C)C(=O)N[C@@H](CC(N)=O)C(=O)N[C@@H](CCCNC(=N)N)C(=O)N[C@@H](CC(C)C)C(=O)N[C@@H](CCCCC)C(=O)N2CCC[C@H]2C(=O)N[C@@H](C(C)(C)C)C(=O)N[C@@H](CO)C(=O)N[C@H](C(=O)NCCOCCOCC(=O)N[C@@H](CCC(=O)NCCOCCOCC(=O)NCCCCCCCCCCC(=O)O)C(=O)O)CSCC(=O)N[C@@H](Cc2ccccc2)C(=O)N[C@@H](Cc2c[nH]c3ccccc23)C(=O)N[C@@H](CC(=O)O)C1=O [compound 2230] ({CH2CO}-FWD[NHexGly]YLNRL[Ahp(2)]P[Tle]SC[AEEA][γGlu][AEEA][Aun]-OH; thioether N-14) | 28.4
12 | CCCCCCN1CC(=O)N[C@@H](Cc2ccc(O)cc2)C(=O)N[C@@H](CC(C)C)C(=O)N[C@@H](CC(N)=O)C(=O)N[C@@H](CCCNC(=N)N)C(=O)N[C@@H](CC(C)C)C(=O)N[C@@H](CCCCC)C(=O)N2CCC[C@H]2C(=O)N[C@@H](C(C)(C)C)C(=O)N[C@@H](C(C)C)C(=O)N[C@H](C(=O)NCCOCCOCC(=O)N[C@@H](CCC(=O)NCCOCCOCC(=O)NCCCCCCCCCCC(=O)O)C(=O)O)CSCC(=O)N[C@@H](Cc2ccccc2)C(=O)N[C@@H](Cc2c[nH]c3ccccc23)C(=O)N[C@@H](CC(=O)O)C1=O [compound 2231] ({CH2CO}-FWD[NHexGly]YLNRL[Ahp(2)]P[Tle]VC[AEEA][γGlu][AEEA][Aun]-OH; thioether N-14) | 42.5
13 | CCCCCCN1CC(=O)N[C@@H](Cc2ccc(O)cc2)C(=O)N[C@@H](CC(C)C)C(=O)N[C@@H](CC(N)=O)C(=O)N[C@@H](CCCNC(=N)N)C(=O)N[C@@H](CC(C)C)C(=O)N[C@@H](CCCCC)C(=O)N2CCC[C@H]2C(=O)N[C@@H](C(C)(C)C)C(=O)N[C@@H](CC(=O)O)C(=O)N[C@H](C(=O)NCCOCCOCC(=O)N[C@@H](CCC(=O)NCCOCCOCC(=O)NCCCCCCCCCCC(=O)O)C(=O)O)CSCC(=O)N[C@@H](Cc2ccccc2)C(=O)N[C@@H](Cc2ccc(O)cc2)C(=O)N[C@@H](CC(=O)O)C1=O [compound 2232] ({CH2CO}-FYD[NHexGly]YLNRL[Ahp(2)]P[Tle]DC[AEEA][γGlu][AEEA][Aun]-OH; thioether N-14) | 13
